Experimental data: patent US6825230B2, “Spiro and dispiro 1,2,4-trixolane antimalarials” (Medicines for Malaria Venture MMV, priority 2002, dated 2004)
In brackets after ≈: the same amount, converted by molar mass. Like-named read-outs stand apart in the source and are kept apart here.

Tests used:
[1] = test system: chloroquine-resistant K1 strain of P. falciparum; assay: In vitro antimalarial semiautomated microdilution assay ([3H]-hypoxanthine incorporation), K1 strain; type: cell-based, Plasmodium falciparum; settings: Plasmodium falciparum
Description: (§1) Various OZ compounds were tested by the semiautomated microdilution assay against intraerythrocytic forms of Plasmodium falciparum derived from asynchronous stock cultures.
(§2) Fifty percent inhibitory concentration (IC50) were estimated by Logit regression analysis.

[2] = test system: chloroquine-sensitive NF54 strain of P. falciparum; assay: In vitro antimalarial semiautomated microdilution assay ([3H]-hypoxanthine incorporation), NF54 strain; type: cell-based, Plasmodium falciparum; settings: Plasmodium falciparum
Description: as §1, §2

[3] = test system: ANKA strain of P. berghei; assay: Single dose STI in vivo screen in infected mice; design: species or system Plasmodium berghei; settings: for Survival (days) 10 mg/kg po: single 10 mg/kg po in 3% ethanol and 7% Tween 80; for Survival (days) 10 mg/kg po / Survival (days) 10 mg/kg SSV po / Survival (days) 10 mg/kg sc: untreated 6-7 days; for Activity (%) 10 mg/kg po: single 10 mg/kg po in 3% ethanol and 7% Tween 80 on day 1 post-infection; for Activity (%) 10 mg/kg po / Activity (%) 10 mg/kg SSV po / Activity (%) 10 mg/kg sc / Activity (%) 3 mg/kg SSV po: percent reduction in parasitemia on day 3; for Survival (days) 10 mg/kg SSV po: single 10 mg/kg po in SSV; for Activity (%) 10 mg/kg SSV po: single 10 mg/kg po in standard suspending vehicle (SSV) on day 1 post-infection; for Survival (days) 10 mg/kg sc: single 10 mg/kg sc in 3% ethanol and 7% Tween 80; for Activity (%) 10 mg/kg sc: single 10 mg/kg sc in 3% ethanol and 7% Tween 80 on day 1 post-infection; for Survival (days) 3 mg/kg SSV po / Activity (%) 3 mg/kg SSV po: single 3 mg/kg po in SSV
Description: In the single dose STI in vivo screen, Moro SPF or NMRI mice infected with the ANKA strain of P. berghei (groups of three mice) were treated on day one post-infection with trioxolanes dissolved or suspended in 3% ethanol and 7% Tween 80. […] SSV consists of 0.5% w/v CMC, 0.5% v/v benzyl alcohol, 0.4% v/v Tween 80, and 0.9% w/v sodium chloride in water. Antimalarial activity was measured by percent reduction in parasitemia on day three post-infection and survival times compared to an untreated control group. Survival to day 30 post-infection is considered to be a cure. […] Other factors influencing antimalarial activity include the stability of carbon radicals formed by β-scission subsequent to the initial electron transfer to the peroxide bond and the influence of steric effects remote from the peroxide bond on the interactions between carbon radicals and potential drug targets.
Moro NMRI male mice (Fu Albino specific pathogen free) weighing 18±2 g were infected intravenously (i.v.) with 2×10^7 P. berghei ANKA strain-infected erythrocytes from donor mice on day 0 of the experiment. From donor mice with circa 30% parasitemia, heparinized blood was taken and diluted in physiological saline to 10^8 parasitized erythrocytes per ml. An aliquot (0.2 ml) of this suspension was injected i.v. into experimental and control groups of mice. […] Throughout the experiments, mice were kept in groups of three or five animals in Makrolon type II cages in an air-conditioned animal room at 22 to 23° C.
They were administered per os (p.o.) in a total volume of 0.01 ml per gram of mouse. The activity of the compound was determined by a variety of methods outlined in subsequent sections. Survival time was also recorded, and survival to day 30 post-infection was considered to be a cure.

[4] = K1, 72 h, read-out: IC50 (ng/ml) K1, chloroquine-resistant K1 strain, 72 h incubation
[5] = NF54, 72 h, read-out: IC50 (ng/ml) NF54, chloroquine-sensitive NF54 strain, 72 h incubation
[6] = chloroquine-resistant K1 strain, 72 h incubation, read-out: IC50 (ng/ml) K1

| SMILES | IC50 [1, 4] [ng/mL] | IC50 [2, 5] [ng/mL] | Survival (days) 10 mg/kg po [3] [days] | Activity (%) 10 mg/kg po [3] [%] | Survival (days) 10 mg/kg SSV po [3] | Activity (%) 10 mg/kg SSV po [3] [%] | Survival (days) 10 mg/kg sc [3] [days] | Activity (%) 10 mg/kg sc [3] [%] | IC50 ([2]; chloroquine-sensitive NF54 strain, 72 h incubation, read-out: IC50 (ng/ml) NF54) [ng/mL] | Survival (days) 3 mg/kg SSV po [3] | Activity (%) 3 mg/kg SSV po [3] [%] | IC50 [1, 6] [ng/mL] |
| --- | --- | --- | --- | --- | --- | --- | --- | --- | --- | --- | --- | --- |
| S=C(Nc1ccccc1)N1CCC2(CC1)OOC1(O2)C2CC3CC(C2)CC1C3 (centres unmarked) [OZ144, Adamantane-2-spiro-3′-8′-(phenylaminothiocarbonyl)-1′,2′,4′-trioxa-8′-azaspiro[4.5]decane] | 1.4 (≈ 3.5 nM) | 2.1 (≈ 5.24 nM) | 7.3 | 99.45 | 7.3 days | 92 | 16.7 | 99.94 |  |  |  |  |
| CC(C)N(C(=O)N1CCC2(CC1)OOC1(O2)C2CC3CC(C2)CC1C3)C(C)C (centres unmarked) [OZ194, Adamantane-2-spiro-3′-8′-[(diisopropylamino)carbonyl]-1′,2′,4′-trioxa-8′-azaspiro[4.5]decane] |  | 6.6 (≈ 16.8 nM) | 8.3 | 87 | 8.0 days | 73 | 20.3 | 99.95 |  |  |  |  |
| CC(C)(C)CC(=O)N[C@H]1CC[C@]2(CC1)OOC1(O2)C2CC3CC(C2)CC1C3 (some centres unmarked) [OZ195] | 2.2 (≈ 5.83 nM) | 3.7 (≈ 9.8 nM) |  |  |  |  |  |  |  |  |  |  |
| O=C1CCC(=O)N1C[C@H]1CC[C@]2(CC1)OOC1(O2)C2CC3CC(C2)CC1C3 (some centres unmarked) [OZ197] | 1 (≈ 2.66 nM) | 2 (≈ 5.33 nM) |  |  |  |  |  |  |  |  |  |  |
| NC(=O)CCNC[C@H]1CC[C@]2(CC1)OO[C@]1(O2)C2CC3CC(C2)CC1C3 [OZ319] | 0.41 (≈ 1.12 nM) | 0.91 (≈ 2.5 nM) |  |  |  |  |  |  |  |  |  |  |
| N[C@H]1CC[C@]2(CC1)OOC1(O2)C2CC3CC(C2)CC1C3 (some centres unmarked) [OZ137] |  | 18 (≈ 64.4 nM) | 5.7 | 0 | 6.3 days | 6 | 7.0 | 61 |  |  |  |  |
| C1CCC(NC2CCC3(CC2)OOC2(O3)C3CC4CC(C3)CC2C4)CC1 (centres unmarked) [OZ162] | 0.5 (≈ 1.38 nM) | 0.71 (≈ 1.96 nM) |  |  |  |  |  |  |  |  |  |  |
| CCOC(=O)NC[C@H]1CC[C@]2(CC1)OO[C@]1(O2)C2CC3CC(C2)CC1C3 [OZ289] |  |  |  |  | 13.4 days | 99.94 |  |  | 0.56 (≈ 1.53 nM) | 7.4 days | 92 |  |
| O=CNCC(=O)NC[C@H]1CC[C@]2(CC1)OO[C@]1(O2)C2CC3CC(C2)CC1C3 [OZ322] |  |  |  |  | 10.0 days | 98 |  |  |  | 9.4 days | 61 | 0.9 (≈ 2.38 nM) |
| CN(C)C(=O)N1CCC2(CC1)OOC1(O2)C2CC3CC(C2)CC1C3 (centres unmarked) [OZ133, Adamantane-2-spiro-3′-8′-[(dimethylamino)carbonyl]-1′,2′,4′-trioxa-8′-azaspiro[4.5]decane] | 0.7 (≈ 2.08 nM) |  | 7.0 | 94 | 7.3 days | 97 | 7.0 | 72 |  |  |  |  |
| O=C(c1ccncc1)N1CCC2(CC1)OOC1(O2)C2CC3CC(C2)CC1C3 (centres unmarked) [OZ100, Adamantane-2-spiro-3′-8′-(4′-pyridinylcarbonyl)-1′,2′,4′-trioxa-8′-azaspiro[4.5]decane] |  |  | 6.7 | 61 | 6.3 days | 36 | 7.0 | 80 |  |  |  |  |
| O=c1ccn(C[C@H]2CC[C@]3(CC2)OO[C@]2(O3)C3CC4CC(C3)CC2C4)cc1 [OZ302] |  |  |  |  | 9.0/9.0 days |  |  |  |  | 9.0/9.0 days | 88 |  |
| c1cnc(NC[C@H]2CC[C@]3(CC2)OO[C@]2(O3)C3CC4CC(C3)CC2C4)nc1 [OZ326] |  |  |  |  | 7.4 days | 80 |  |  |  | 6.0 days | 7 |  |
| NC(=O)c1ccc(NC[C@H]2CC[C@]3(CC2)OOC2(O3)C3CC4CC(C3)CC2C4)cc1 (some centres unmarked) [OZ286] |  |  |  |  | 8.7 days | 99.73 |  |  |  | 7.0 days | 60 |  |
| NCC[C@H]1CC[C@]2(CC1)OOC1(O2)C2CC3CC(C2)CC1C3 (some centres unmarked) [OZ229] | 0.24 (≈ 0.781 nM) | 0.23 (≈ 0.748 nM) |  |  |  |  |  |  |  |  |  |  |
| C[C@H](N)C(=O)NC[C@H]1CC[C@]2(CC1)OO[C@]1(O2)C2CC3CC(C2)CC1C3 [OZ335] |  |  |  |  | 9.2 days |  |  |  |  | 10.0 days | 97 |  |
| NCCNC(=O)C[C@H]1CC[C@]2(CC1)OO[C@]1(O2)C2CC3CC(C2)CC1C3 [OZ305] |  |  |  |  | 9.2 days |  |  |  |  | 9.6 days | 96 |  |
| O=C(C[C@H]1CC[C@]2(CC1)OO[C@]1(O2)C2CC3CC(C2)CC1C3)N1CCS(=O)(=O)CC1 [OZ342] |  |  |  |  | 6.8 days | 27 |  |  |  | 6.4 days | 0 |  |
| [O-][n+]1ccccc1SC[C@H]1CC[C@]2(CC1)OO[C@]1(O2)C2CC3CC(C2)CC1C3 [OZ328] |  |  |  |  | 8.6 days | 99.77 |  |  |  | 7.6 days | 75 |  |
| O=C(N1CCOCC1)N1CCC2(CC1)OOC1(O2)C2CC3CC(C2)CC1C3 (centres unmarked) [OZ188, Adamantane-2-spiro-3′-8′-(4′-morpholinylcarbonyl)-1′,2′,4′-trioxa-8′-azaspiro[4.5]decane] |  |  | 8.7 | 93 | 10.0 days | 98 | 9.0 | 99.87 |  |  |  |  |
| O=C(Cn1ccnc1)N1CCC2(CC1)OOC1(O2)C2CC3CC(C2)CC1C3 (centres unmarked) [OZ103, Adamantane-2-spiro-3′-8′-(1′H-imidazol-1′-ylacetyl)-1′,2′,4′-trioxa-8′-azaspiro[4.5]decane] |  |  | 7.3 | 86 | 6.7 days | 63 | 7.3 | 87 |  |  |  |  |
| NC(=O)[C@@H]1CCCN1C[C@H]1CC[C@]2(CC1)OO[C@]1(O2)C2CC3CC(C2)CC1C3 [OZ327] |  |  |  |  | 9.8 days | 97 |  |  |  | 7.0 days | 72 |  |
| O=C(Nc1ccc(Cl)cc1)N1CCC2(CC1)OOC1(O2)C2CC3CC(C2)CC1C3 (centres unmarked) [OZ192, Adamantane-2-spiro-3′-8′-[(4′-chlorophenylamino)carbonyl]-1′,2′,4′-trioxa-8′-azaspiro[4.5]decane] |  |  | 6.0 | 38 | 7.0 days | 45 | 13.7 | 99.98 |  |  |  |  |
| O=C(NC[C@H]1CC[C@]2(CC1)OO[C@]1(O2)C2CC3CC(C2)CC1C3)[C@@H]1CCCN1 [OZ337] |  |  |  |  | 8.6 days |  |  |  |  |  | 97 |  |
| O=C(NC[C@H]1CC[C@]2(CC1)OO[C@]1(O2)C2CC3CC(C2)CC1C3)c1cccnc1 [OZ273] |  |  |  |  | 11.7 days | 99.58 |  |  |  | 7.2 days | 64 | 0.97 (≈ 2.43 nM) |
| O=C(NC[C@H]1CC[C@]2(CC1)OO[C@]1(O2)C2CC3CC(C2)CC1C3)N1CCOCC1 [OZ272] |  |  |  |  | 10.3 days | 98 |  |  |  | 6.6 days | 49 |  |
| NC(=O)c1cncn1C[C@H]1CC[C@]2(CC1)OO[C@]1(O2)C2CC3CC(C2)CC1C3 [OZ321] |  |  |  |  | 14.0 days |  |  |  |  | 9.8 days | 64 |  |
